Assay results reported in publication PMC4116505, “HER2-signaling pathway, JNK and ERKs kinases, and cancer stem-like cells are targets of Bozepinib” (Oncotarget, 2014).

Legend:
[1] = molecular target: T1, VEGFR-2 (Homo sapiens, UniProt P35968); assay: 36-kinase panel, residual activity at […]; format: biochemical
T1 construct: gene KDR

[2] = molecular target: T2, AKT2 (Homo sapiens, UniProt P31751); assay: 36-kinase panel, residual activity at […]; format: biochemical
[3] = molecular target: T3, HER2 (Homo sapiens, UniProt P04626); assay: 36-kinase panel, residual activity at […]; p-HER2 loss in SKBR-3 cells by western blot; format: biochemical
T3 construct: gene ERBB2
T3 sequence (P04626 23-1255): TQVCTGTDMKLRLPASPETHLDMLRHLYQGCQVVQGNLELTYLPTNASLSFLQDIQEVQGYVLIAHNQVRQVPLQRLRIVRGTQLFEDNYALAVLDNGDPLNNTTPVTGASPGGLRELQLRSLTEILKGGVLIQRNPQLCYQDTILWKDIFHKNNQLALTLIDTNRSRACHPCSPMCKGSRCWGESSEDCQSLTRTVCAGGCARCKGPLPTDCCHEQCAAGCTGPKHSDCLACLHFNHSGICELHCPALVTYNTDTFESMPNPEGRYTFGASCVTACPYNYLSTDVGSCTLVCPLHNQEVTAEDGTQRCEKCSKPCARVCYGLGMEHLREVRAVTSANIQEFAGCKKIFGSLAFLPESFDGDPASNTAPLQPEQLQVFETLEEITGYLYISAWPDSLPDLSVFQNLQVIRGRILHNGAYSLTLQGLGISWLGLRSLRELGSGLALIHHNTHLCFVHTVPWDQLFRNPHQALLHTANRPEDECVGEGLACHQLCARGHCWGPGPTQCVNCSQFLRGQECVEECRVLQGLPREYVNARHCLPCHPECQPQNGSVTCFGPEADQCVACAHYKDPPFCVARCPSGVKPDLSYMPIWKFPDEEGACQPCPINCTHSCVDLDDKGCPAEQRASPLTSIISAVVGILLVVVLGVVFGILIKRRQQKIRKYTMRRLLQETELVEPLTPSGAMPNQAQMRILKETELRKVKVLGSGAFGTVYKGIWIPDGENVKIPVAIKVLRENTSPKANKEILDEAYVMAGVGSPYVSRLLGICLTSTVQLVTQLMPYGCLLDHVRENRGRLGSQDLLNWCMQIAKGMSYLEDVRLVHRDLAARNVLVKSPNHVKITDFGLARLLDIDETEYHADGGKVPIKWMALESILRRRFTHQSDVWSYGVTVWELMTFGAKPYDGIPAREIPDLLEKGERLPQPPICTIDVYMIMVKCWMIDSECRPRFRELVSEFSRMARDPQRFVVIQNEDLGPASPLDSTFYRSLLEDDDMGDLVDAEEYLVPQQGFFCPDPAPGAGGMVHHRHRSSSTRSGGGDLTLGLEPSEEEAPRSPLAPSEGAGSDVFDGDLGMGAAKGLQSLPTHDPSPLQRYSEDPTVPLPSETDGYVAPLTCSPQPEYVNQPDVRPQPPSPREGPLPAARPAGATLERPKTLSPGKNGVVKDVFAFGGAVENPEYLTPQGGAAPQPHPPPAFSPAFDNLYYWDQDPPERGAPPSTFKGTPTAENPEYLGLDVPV

[4] = molecular target: T4, VEGFR-1 (Homo sapiens, UniProt P17948); assay: 36-kinase panel, residual activity at […]; format: biochemical
T4 construct: gene FLT1
T4 sequence (P17948 27-1338): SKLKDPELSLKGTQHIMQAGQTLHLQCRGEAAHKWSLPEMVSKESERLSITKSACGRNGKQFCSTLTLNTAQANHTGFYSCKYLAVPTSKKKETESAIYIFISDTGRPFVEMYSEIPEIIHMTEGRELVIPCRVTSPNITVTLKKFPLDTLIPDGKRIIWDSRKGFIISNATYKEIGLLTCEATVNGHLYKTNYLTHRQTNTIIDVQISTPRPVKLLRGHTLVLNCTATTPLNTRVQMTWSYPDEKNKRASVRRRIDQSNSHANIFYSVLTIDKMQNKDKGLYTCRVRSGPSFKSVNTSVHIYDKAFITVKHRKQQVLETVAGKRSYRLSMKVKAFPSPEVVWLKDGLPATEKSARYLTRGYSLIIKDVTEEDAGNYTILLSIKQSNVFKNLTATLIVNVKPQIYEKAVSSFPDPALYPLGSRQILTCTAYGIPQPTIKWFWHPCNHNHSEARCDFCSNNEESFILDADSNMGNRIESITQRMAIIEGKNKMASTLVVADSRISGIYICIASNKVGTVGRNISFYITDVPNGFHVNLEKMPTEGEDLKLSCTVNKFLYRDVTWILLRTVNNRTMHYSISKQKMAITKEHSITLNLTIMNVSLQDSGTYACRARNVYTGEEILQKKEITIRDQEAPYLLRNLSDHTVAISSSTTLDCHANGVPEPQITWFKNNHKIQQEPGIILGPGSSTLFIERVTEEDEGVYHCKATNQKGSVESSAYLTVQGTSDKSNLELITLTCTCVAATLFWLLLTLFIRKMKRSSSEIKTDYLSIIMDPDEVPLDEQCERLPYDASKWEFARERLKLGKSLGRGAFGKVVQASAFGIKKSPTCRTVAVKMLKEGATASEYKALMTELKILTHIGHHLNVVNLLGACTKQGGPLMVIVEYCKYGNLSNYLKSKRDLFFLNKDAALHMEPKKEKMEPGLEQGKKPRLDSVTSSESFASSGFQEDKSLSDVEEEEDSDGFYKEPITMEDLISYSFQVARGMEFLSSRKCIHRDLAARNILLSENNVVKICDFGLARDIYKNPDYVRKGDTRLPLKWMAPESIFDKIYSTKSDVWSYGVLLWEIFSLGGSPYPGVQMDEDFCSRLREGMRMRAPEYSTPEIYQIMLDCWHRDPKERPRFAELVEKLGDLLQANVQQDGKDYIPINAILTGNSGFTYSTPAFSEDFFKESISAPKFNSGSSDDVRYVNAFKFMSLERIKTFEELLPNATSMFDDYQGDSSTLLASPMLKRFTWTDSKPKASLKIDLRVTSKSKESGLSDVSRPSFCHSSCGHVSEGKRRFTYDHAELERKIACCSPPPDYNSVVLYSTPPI

[5] = molecular target: T5, VEGFR-3 (Homo sapiens, UniProt P35916); assay: 36-kinase panel, residual activity at […]; format: biochemical
T5 construct: gene FLT4
T5 sequence (P35916 25-1363): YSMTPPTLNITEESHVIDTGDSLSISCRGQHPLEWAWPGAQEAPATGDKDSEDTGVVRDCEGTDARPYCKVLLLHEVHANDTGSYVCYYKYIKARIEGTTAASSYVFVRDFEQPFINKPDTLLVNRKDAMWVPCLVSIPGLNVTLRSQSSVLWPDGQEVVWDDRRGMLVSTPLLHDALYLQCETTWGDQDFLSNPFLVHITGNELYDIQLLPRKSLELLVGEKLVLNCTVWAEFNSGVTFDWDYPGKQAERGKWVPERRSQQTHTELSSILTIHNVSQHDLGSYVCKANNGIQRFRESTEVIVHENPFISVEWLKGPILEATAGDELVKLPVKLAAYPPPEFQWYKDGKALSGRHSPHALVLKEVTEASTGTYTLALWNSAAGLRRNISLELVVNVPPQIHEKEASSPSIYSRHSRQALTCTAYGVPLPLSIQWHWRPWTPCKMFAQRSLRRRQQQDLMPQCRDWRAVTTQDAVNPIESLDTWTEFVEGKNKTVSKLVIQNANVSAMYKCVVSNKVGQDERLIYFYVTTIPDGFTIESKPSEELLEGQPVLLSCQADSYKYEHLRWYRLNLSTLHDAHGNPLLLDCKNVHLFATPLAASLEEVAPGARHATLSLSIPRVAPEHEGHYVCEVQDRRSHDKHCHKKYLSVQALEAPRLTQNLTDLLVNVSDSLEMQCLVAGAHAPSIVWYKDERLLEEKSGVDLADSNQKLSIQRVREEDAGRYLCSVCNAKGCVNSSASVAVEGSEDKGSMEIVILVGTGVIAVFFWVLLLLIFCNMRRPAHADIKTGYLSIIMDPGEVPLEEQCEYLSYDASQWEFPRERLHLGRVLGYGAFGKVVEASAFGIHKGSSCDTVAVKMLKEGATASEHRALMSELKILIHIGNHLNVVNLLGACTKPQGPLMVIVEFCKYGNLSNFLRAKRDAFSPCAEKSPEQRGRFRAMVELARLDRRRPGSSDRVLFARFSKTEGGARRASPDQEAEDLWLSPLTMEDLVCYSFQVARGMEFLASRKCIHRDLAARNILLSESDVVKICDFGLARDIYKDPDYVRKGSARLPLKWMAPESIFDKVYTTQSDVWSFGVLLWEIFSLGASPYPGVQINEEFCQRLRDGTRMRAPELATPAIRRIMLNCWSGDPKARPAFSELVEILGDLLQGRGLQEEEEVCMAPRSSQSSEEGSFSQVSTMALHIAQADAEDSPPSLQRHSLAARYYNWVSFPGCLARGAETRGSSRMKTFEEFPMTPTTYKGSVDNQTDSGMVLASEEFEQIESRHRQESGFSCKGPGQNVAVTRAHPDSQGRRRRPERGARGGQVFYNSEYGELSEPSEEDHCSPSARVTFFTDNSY

[6] = molecular target: AKT1 (Homo sapiens, UniProt P31749); assay: biochemical; set-up: protein kinase panel (36 kinases), residual activity at two concentrations, singlicate
Experimental: (§1) The kinase inhibition profile of Bozepinib was determined using a panel of 36 protein kinases (Supplementary Table S1). Residual activity values were measured by testing each compound at two concentrations (5×10^−5 M and 5×10^−6 M) in singlicate for each kinase assay. Detailed methods for kinome analyses are provided in Supplementary Materials and Methods. […] Each experiment was repeated three times. Kinase Inhibition Assays Bozepinib was dissolved in volumes of 100% DMSO to reach stock concentrations of 5×10^-3 M/100% DMSO and 5×10^-4 M/100% DMSO, respectively. In the process, the 5×10^-3 M/100% DMSO and 5×10^-4 M/100% DMSO solutions were diluted with water to 5×10^-4 M/10% DMSO and 5×10^-5 M/10% DMSO in a 96 well microtiter plate directly before use. For every kinase, 5 μl from each of the 5×10^-4 M/10% DMSO and 5×10^-5 M/10% DMSO compound solutions were transferred into the assay plates. The To study the effect of Bozepinib on cancer proliferation pathways, we carried out an ex vivo multikinase screening assay (n=36) using 5μM and 50μM (Supplementary Table S3). […] In order to analyze whether Bozepinib inhibits the HER2 signaling pathways in breast cancer cells, we treated the HER2 positive SKBR-3 cell line with 5 μM of Bozepinib and we analyzed the expression and activation of proteins involved in HER2 signaling at different times post-treatment by western blot analysis (Fig. 1A). […] Moreover, we also detected both the inhibition of ERKs and JNK phosphorylation in MCF-7 and MDA-MB 468 breast cancer cell lines, that was more notable in MCF-7 cells at 4 hours post-treatment and in MDA-MB 468 cell line after 8 hours post-treatment (Fig. 1B and 1C).

[7] = molecular target: T2, AKT2; assay: biochemical; set-up: protein kinase panel (36 kinases), residual activity at two concentrations, singlicate
Experimental: as §1

[8] = molecular target: AKT3 (Homo sapiens, UniProt Q9Y243); assay: biochemical; set-up: protein kinase panel (36 kinases), residual activity at two concentrations, singlicate
Experimental: as §1

[9] = molecular target: CDK6/CycD1 (Homo sapiens, UniProt Q00534); assay: biochemical; set-up: protein kinase panel (36 kinases), residual activity at two concentrations, singlicate
Experimental: as §1

[10] = molecular target: CDK7/CycH/MAT1 (Homo sapiens, UniProt P50613); assay: biochemical; set-up: protein kinase panel (36 kinases), residual activity at two concentrations, singlicate
Experimental: as §1

[11] = molecular target: CDK8/CycC (Homo sapiens, UniProt P49336); assay: biochemical; set-up: protein kinase panel (36 kinases), residual activity at two concentrations, singlicate
Experimental: as §1

[12] = molecular target: CDK9/CycT (Homo sapiens, UniProt P50750); assay: biochemical; set-up: protein kinase panel (36 kinases), residual activity at two concentrations, singlicate
Experimental: as §1

[13] = molecular target: EGFR (Homo sapiens, UniProt P00533); assay: biochemical; set-up: protein kinase panel (36 kinases), residual activity at two concentrations, singlicate
Experimental: as §1

[14] = molecular target: T6, ERK2 (Homo sapiens, UniProt P28482); assay: biochemical; set-up: protein kinase panel (36 kinases), residual activity at two concentrations, singlicate
T6 construct: gene MAPK1
T6 sequence (P28482 whole entry): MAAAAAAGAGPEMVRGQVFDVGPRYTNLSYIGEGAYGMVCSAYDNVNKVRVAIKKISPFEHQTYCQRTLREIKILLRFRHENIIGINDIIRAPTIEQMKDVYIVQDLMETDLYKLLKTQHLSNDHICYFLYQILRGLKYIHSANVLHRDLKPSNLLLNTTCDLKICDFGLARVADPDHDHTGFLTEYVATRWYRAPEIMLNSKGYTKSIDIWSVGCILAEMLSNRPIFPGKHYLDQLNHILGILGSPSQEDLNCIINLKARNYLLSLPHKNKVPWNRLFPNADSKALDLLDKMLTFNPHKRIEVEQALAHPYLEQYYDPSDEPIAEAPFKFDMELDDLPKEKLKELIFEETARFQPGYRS
Experimental: as §1

[15] = molecular target: T3, HER2; assay: biochemical; set-up: protein kinase panel (36 kinases), residual activity at two concentrations, singlicate
Experimental: as §1

[16] = molecular target: T7, IKK- alpha (Homo sapiens, UniProt O15111); assay: biochemical; set-up: protein kinase panel (36 kinases), residual activity at two concentrations, singlicate
T7 construct: gene CHUK
Experimental: as §1

[17] = molecular target: T8, IKK-beta (Homo sapiens, UniProt O14920); assay: biochemical; set-up: protein kinase panel (36 kinases), residual activity at two concentrations, singlicate
T8 construct: gene IKBKB
Experimental: as §1

[18] = molecular target: T9, IKK-epsilon (Homo sapiens, UniProt Q14164); assay: biochemical; set-up: protein kinase panel (36 kinases), residual activity at two concentrations, singlicate
T9 construct: gene IKBKE
Experimental: as §1

[19] = molecular target: JAK3 (Homo sapiens, UniProt P52333); assay: biochemical; set-up: protein kinase panel (36 kinases), residual activity at two concentrations, singlicate
Experimental: as §1

[20] = molecular target: T10, JNK1 (Homo sapiens, UniProt P45983); assay: biochemical; set-up: protein kinase panel (36 kinases), residual activity at two concentrations, singlicate
T10 construct: gene MAPK8
Experimental: as §1

[21] = molecular target: T11, JNK2 (Homo sapiens, UniProt P45984); assay: biochemical; set-up: protein kinase panel (36 kinases), residual activity at two concentrations, singlicate
T11 construct: gene MAPK9
Experimental: as §1

[22] = molecular target: T12, JNK3 (Homo sapiens, UniProt P53779); assay: biochemical; set-up: protein kinase panel (36 kinases), residual activity at two concentrations, singlicate
T12 construct: gene MAPK10
Experimental: as §1

[23] = molecular target: T13, P38-alpha (Homo sapiens, UniProt Q16539); assay: biochemical; set-up: protein kinase panel (36 kinases), residual activity at two concentrations, singlicate
T13 construct: gene MAPK14
T13 sequence (Q16539 whole entry): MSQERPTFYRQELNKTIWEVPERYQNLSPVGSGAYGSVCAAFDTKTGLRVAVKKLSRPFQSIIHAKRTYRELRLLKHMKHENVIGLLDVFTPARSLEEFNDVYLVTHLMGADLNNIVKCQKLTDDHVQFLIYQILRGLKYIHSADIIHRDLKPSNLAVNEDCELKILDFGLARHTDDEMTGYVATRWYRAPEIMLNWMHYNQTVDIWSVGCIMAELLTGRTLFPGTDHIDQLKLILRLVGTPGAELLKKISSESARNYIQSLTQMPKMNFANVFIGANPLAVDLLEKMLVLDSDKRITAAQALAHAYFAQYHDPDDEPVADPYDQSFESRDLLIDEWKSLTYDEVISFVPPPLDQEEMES
Experimental: as §1

[24] = molecular target: T14, PDK1 (Homo sapiens, UniProt O15530); assay: biochemical; set-up: protein kinase panel (36 kinases), residual activity at two concentrations, singlicate
T14 construct: gene PDPK1
Experimental: as §1

[25] = molecular target: T15, PKC-alpha (Homo sapiens, UniProt P17252); assay: biochemical; set-up: protein kinase panel (36 kinases), residual activity at two concentrations, singlicate
T15 construct: gene PRKCA
Experimental: as §1

[26] = molecular target: RET (Homo sapiens, UniProt P07949); assay: biochemical; set-up: protein kinase panel (36 kinases), residual activity at two concentrations, singlicate
Experimental: as §1

[27] = molecular target: T16, STK23 (Homo sapiens, UniProt Q9UPE1); assay: biochemical; set-up: protein kinase panel (36 kinases), residual activity at two concentrations, singlicate
T16 construct: gene SRPK3
Experimental: as §1

[28] = molecular target: STK33 (Homo sapiens, UniProt Q9BYT3); assay: biochemical; set-up: protein kinase panel (36 kinases), residual activity at two concentrations, singlicate
Experimental: as §1

[29] = molecular target: T4, VEGFR-1; assay: biochemical; set-up: protein kinase panel (36 kinases), residual activity at two concentrations, singlicate
Experimental: as §1

[30] = molecular target: T1, VEGFR-2; assay: biochemical; set-up: protein kinase panel (36 kinases), residual activity at two concentrations, singlicate
Experimental: as §1

[31] = molecular target: T5, VEGFR-3; assay: biochemical; set-up: protein kinase panel (36 kinases), residual activity at two concentrations, singlicate
Experimental: as §1

[32] = read-out: Bozepinib 5 µM, residual activity %
[33] = read-out: Bozepinib 50 µM, residual activity %

T2 sequence (P31751 whole entry): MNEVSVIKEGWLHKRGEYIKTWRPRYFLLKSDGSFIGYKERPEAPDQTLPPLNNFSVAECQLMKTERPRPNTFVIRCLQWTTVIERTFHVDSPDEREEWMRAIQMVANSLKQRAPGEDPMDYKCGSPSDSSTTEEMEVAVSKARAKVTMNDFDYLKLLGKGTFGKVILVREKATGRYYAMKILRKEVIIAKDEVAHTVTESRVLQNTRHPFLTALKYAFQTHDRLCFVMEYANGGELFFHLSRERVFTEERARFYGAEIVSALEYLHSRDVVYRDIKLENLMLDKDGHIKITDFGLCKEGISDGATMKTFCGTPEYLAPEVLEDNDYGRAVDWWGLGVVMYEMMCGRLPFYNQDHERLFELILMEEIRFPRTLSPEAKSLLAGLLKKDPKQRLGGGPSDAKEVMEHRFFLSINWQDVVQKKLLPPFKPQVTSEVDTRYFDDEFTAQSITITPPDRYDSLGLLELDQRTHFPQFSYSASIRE

- remaining activity at 5 µM [6, 32]: 96%
- remaining activity at 50 µM [6, 33]: 78%
- remaining activity at 5 µM [7, 32]: 100%
- remaining activity at 50 µM [7, 33]: 43%
- remaining activity at 5 µM [8, 32]: 98%
- remaining activity at 50 µM [8, 33]: 88%
- remaining activity at 5 µM [9, 32]: 95%
- remaining activity at 50 µM [9, 33]: 64%
- remaining activity at 5 µM [10, 32]: 96%
- remaining activity at 50 µM [10, 33]: 69%
- remaining activity at 5 µM [11, 32]: 109%
- remaining activity at 50 µM [11, 33]: 72%
- remaining activity at 5 µM [12, 32]: 102%
- remaining activity at 50 µM [12, 33]: 69%
- remaining activity at 5 µM [13, 32]: 84%
- remaining activity at 50 µM [13, 33]: 17%
- remaining activity at 5 µM [14, 32]: 104%
- remaining activity at 50 µM [14, 33]: 50%
- remaining activity at 5 µM [15, 32]: 101%
- remaining activity at 50 µM [15, 33]: 25%
- remaining activity at 5 µM [16, 32]: 104%
- remaining activity at 50 µM [16, 33]: 51%
- remaining activity at 5 µM [17, 32]: 113%
- remaining activity at 50 µM [17, 33]: 78%
- remaining activity at 5 µM [18, 32]: 113%
- remaining activity at 50 µM [18, 33]: 71%
- remaining activity at 5 µM [19, 32]: 94%
- remaining activity at 50 µM [19, 33]: 43%
- remaining activity at 5 µM [20, 32]: 45%
- remaining activity at 50 µM [20, 33]: 29%
- remaining activity at 5 µM [21, 32]: 77%
- remaining activity at 50 µM [21, 33]: 37%
- remaining activity at 5 µM [22, 32]: 81%
- remaining activity at 50 µM [22, 33]: 43%
- remaining activity at 5 µM [23, 32]: 115%
- remaining activity at 50 µM [23, 33]: 57%
- remaining activity at 5 µM [24, 32]: 41%
- remaining activity at 50 µM [24, 33]: 27%
- remaining activity at 5 µM [25, 32]: 86%
- remaining activity at 50 µM [25, 33]: 24%
- remaining activity at 5 µM [26, 32]: 79%
- remaining activity at 50 µM [26, 33]: 14%
- remaining activity at 5 µM [27, 32]: 95%
- remaining activity at 50 µM [27, 33]: 89%
- remaining activity at 5 µM [28, 32]: 102%
- remaining activity at 50 µM [28, 33]: 72%
- remaining activity at 5 µM [29, 32]: 91%
- remaining activity at 50 µM [29, 33]: 18%
- remaining activity at 5 µM [30, 32]: 82%
- remaining activity at 50 µM [30, 33]: 13%
- remaining activity at 5 µM [31, 32]: 84%
- remaining activity at 50 µM [31, 33]: 13%
Compound: O=[N+]([O-])c1ccc(S(=O)(=O)N2CC(n3cnc4c(Cl)nc(Cl)nc43)OCc3ccccc32)cc1 (racemic) [Bozepinib, (RS)-2,6-dichloro-9-[1-(p-nitrobenzenesulfonyl)-1,2,3,5-tetrahydro-4,1-benzoxazepin-3-yl]-9H-purine]
- 36-kinase panel, residual activity at 5 and 50 μM [1]: showed inhibitory effects against VEGFR-1, VEGFR-2 and VEGFR-3 in the kinome assay
- 36-kinase panel, residual activity at 5 and 50 μM [2]: HER2, AKT2 and VEGF receptors were considerably inhibited in the screening (Supplementary Table S3)
- 36-kinase panel, residual activity at 5 and 50 μM; p-HER2 loss in SKBR-3 cells b [3]: HER2, AKT2 and VEGF receptors were considerably inhibited in the screening (Supplementary Table S3)
- 36-kinase panel, residual activity at 5 and 50 μM [4]: showed inhibitory effects against VEGFR-1, VEGFR-2 and VEGFR-3 in the kinome assay
- 36-kinase panel, residual activity at 5 and 50 μM [5]: showed inhibitory effects against VEGFR-1, VEGFR-2 and VEGFR-3 in the kinome assay
